Patent publication US7026281B1, “Antagonistic analogs of GH-RH inhibiting IGF-I and -II” (The Administrators of the Tulane Educational Fund, priority 1998, dated 2006)
Square brackets hold non-standard residues; d marks the D form. Peptide text beside a SMILES is read from it. * marks the point of attachment. Acetyl(1-naphthyl) = O=C(Cc1cccc2ccccc12)*; Phe(4-Cl) = N[C@@H](Cc1ccc(Cl)cc1)C(=O)O; hArg = N=C(N)NCCCC[C@H](N)C(=O)O; Nle = CCCC[C@H](N)C(=O)O; Abu = CC[C@H](N)C(=O)O; PhAc = O=C(Cc1ccccc1)*

How the values were obtained:
[1] = system: hGH-RH(1–29)NH2 induced GH release; test: Inhibition of GH release in superfused rat pituitary system; assay type: cell-based; details: for Inhibition of GH release (%) 30 min: 1 nM hGH-RH(1–29)NH2 30 min later; for Inhibition of GH release (%) 60 min: 1 nM hGH-RH(1–29)NH2 60 min later; for Inhibition of GH release (%) 90 min: 1 nM hGH-RH(1–29)NH2 90 min later; for Inhibition of GH release (%) 120 min: 1 nM hGH-RH(1–29)NH2 120 min later; for Inhibition of GH release (%) 0 min: 1 nM hGH-RH(1–29)NH2 at 0 min
Experimental: Superfused Rat Pituitary System.
The analogs were tested in vitro in a test described earlier (S. Vigh and A. V. Schally, Peptides 5:241–347, 1984) with modification (Z. Rekasi and A. V. Schally, P.N.A.S. 90:2146–2149, 1993).
Briefly, the cells are preincubated with peptides for 9 minutes (3 mL) at various concentrations. Immediately after the incubation, 1 nM hGH-RH(1–29)NH2 is administered for 3 minutes (1 mL) [0 minute response]. To check the duration of the antagonistic effect of the analogue, 1 nM hGH-RH(1–29)NH2 is applied 30, 60, 90, and 120 minutes later for 3 minutes [30, 60, 90, 120 min responses]. Net integral values of the GH responses are evaluated. GH responses are compared to and expressed as percent of the original GH response induced by 1 nM GH-RH(1–29)NH2. The effect of the new antagonists are compared to that of [Ac-Tyr^1,D-Arg^2]hGH-RH(1–29)NH2, the “Standard antagonist”.
Growth Hormone Radio-immunoassay.
Rat GH levels in aliquots of undiluted and diluted superfusion samples were measured by double-antibody radioimmunoassay using materials supplied by the National Hormone and Pituitary Program, Baltimore, Md. The results of RIA were analyzed with a computer program developed in our institute (V. Csernus and A. V. Schally, in Neuroendocrine Research Methods, Harwood Academic (Greenstein, B. D. ed., London, pp. 71–109, 1991), hereby incorporated by reference. Inter-assay variation was less than 15% and intra-assay variation was less than 10%.

[2] = target: T1, rat pituitary GH-RH receptors (Rattus norvegicus, UniProt Q02644); test: GH-RH radioreceptor binding assay, rat anterior pituitary membrane homogenates; details: for Ki: competition with [His1,125I-Tyr10,Nle27]hGH-RH(1–32)NH2; for R.A. (relative affinity compared to Standard antagonist): ratio of Ki values
T1 construct: from tissue; host or cells: anterior pituitary of male Sprague-Dawley rats, crude membrane homogenates
T1 sequence (Q02644 23-464): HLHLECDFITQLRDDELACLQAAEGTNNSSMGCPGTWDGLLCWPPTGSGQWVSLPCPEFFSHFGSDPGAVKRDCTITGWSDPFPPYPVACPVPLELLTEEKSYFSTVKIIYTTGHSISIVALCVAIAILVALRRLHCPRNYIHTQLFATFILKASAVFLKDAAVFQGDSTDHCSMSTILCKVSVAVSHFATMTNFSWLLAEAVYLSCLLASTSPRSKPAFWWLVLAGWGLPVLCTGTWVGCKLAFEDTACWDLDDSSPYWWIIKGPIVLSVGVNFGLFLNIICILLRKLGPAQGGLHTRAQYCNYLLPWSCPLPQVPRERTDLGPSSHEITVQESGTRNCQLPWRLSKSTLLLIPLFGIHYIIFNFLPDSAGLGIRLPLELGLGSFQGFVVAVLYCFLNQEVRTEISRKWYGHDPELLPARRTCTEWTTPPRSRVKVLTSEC
Experimental: GH-RH Binding Assay. A sensitive radioreceptor binding assay was developed to determine the binding characteristics of the antagonists of GH-RH (G. Halmos, A. V. Schally et al., Receptor 3, 87–97, 1993), hereby incorporated by reference. The assay is based on binding of labelled [His^1,Nle^27]hGH-RH(1–32)NH2 to rat anterior pituitary membrane homogenates. Iodinated derivatives of [His^1,Nle^27]hGH-RH(1–32)NH2 are prepared by the chloramine-T method (F. C. Greenwood et al., Biochemistry 89:114–123, 1963), hereby incorporated by reference. Pituitaries from male Sprague-Dawley rats (250–300 g) are used to prepare crude membranes. For saturation binding analyses, membrane homogenates are incubated with at least 6 concentrations of [His^1,^125I-Tyr^10,Nle^27]hGH-RH(1–32) NH2, ranging from 0.005 to 0.35 nM in the presence or absence of excess unlabelled peptide (1 μM).
The pellet is counted for radioactivity in a γ-counter. The affinities of the antagonist peptides tested to rat pituitary GH-RH receptors are determined in competitive binding experiments. The final binding affinities are estimated by Ki (dissociation constant of the inhibitor-receptor complex) and are determined by the Ligand PC and McPherson computer programs of Munson and Rodbard (P. J. Munson and D. Rodbard, Anal. Biochem. 107. 220–239, 1980). Relative affinities compared to [Ac-Tyr^1,D-Arg^2]hGH-RH(1–29)NH2, the Standard antagonist, are calculated as the […].

## CCCC[C@H](NC(=O)[C@@H](NC(=O)[C@H](CC(=O)O)NC(=O)[C@H](CCC(N)=O)NC(=O)[C@H](CC(C)C)NC(=O)[C@H](CC(C)C)NC(=O)[C@H](CCCCN)NC(=O)[C@H](CCCNC(=N)N)NC(=O)[C@H](C)NC(=O)[C@H](CO)NC(=O)[C@H](CC(C)C)NC(=O)[C@H](CCC(N)=O)NC(=O)[C@H](CC)NC(=O)[C@H](CC(C)C)NC(=O)[C@@H](NC(=O)[C@H](CCCCN)NC(=O)[C@H](CCCNC(=N)N)NC(=O)[C@H](Cc1ccc(O)cc1)NC(=O)[C@H](CCCNC(=N)N)NC(=O)[C@H](CC(N)=O)NC(=O)[C@@H](NC(=O)[C@H](Cc1ccc(Cl)cc1)NC(=O)[C@@H](NC(=O)[C@H](C)NC(=O)[C@H](CC(=O)O)NC(=O)[C@@H](CCCNC(=N)N)NC(=O)[C@H](Cc1ccc(O)cc1)NC(=O)Cc1cccc2ccccc12)[C@@H](C)CC)[C@@H](C)O)C(C)C)[C@@H](C)CC)C(=O)N[C@H](CCCNC(=N)N)C(=O)N[C@@H](CCCCNC(=N)N)C(N)=O [Peptide 5, [Nac^0, D-Arg^2, Phe(pCl)^6, Arg^9, Abu^15, Nle^27, D-Arg^28, Har^29]hGH-RH(1–29)NH2] ({Acetyl(1-naphthyl)}-Y[dR]DAI[Phe(4-Cl)]TNRYRKVL[Abu]QLSARKLLQDI[Nle][dR][hArg]-NH2)
[1]; antagonist 30 nM
  Inhibition of GH release (%) 30 min: 77%
  Inhibition of GH release (%) 60 min: 59%
  Inhibition of GH release (%) 90 min: 58%
  Inhibition of GH release (%) 120 min: 50%
  Inhibition of GH release (%) 0 min: 79%
[2]
  Ki: 0.036 nM
  R.A. (relative affinity compared to Standard antagonist): 82

## CCCC[C@H](NC(=O)[C@@H](NC(=O)[C@H](CC(=O)O)NC(=O)[C@H](CCC(N)=O)NC(=O)[C@H](CC(C)C)NC(=O)[C@H](CC(C)C)NC(=O)[C@H](CCCCN)NC(=O)[C@H](CCCNC(=N)N)NC(=O)[C@H](C)NC(=O)[C@H](CO)NC(=O)[C@H](CC(C)C)NC(=O)[C@H](CCCNC(=N)N)NC(=O)[C@H](CC)NC(=O)[C@H](CC(C)C)NC(=O)[C@@H](NC(=O)[C@H](CCCCN)NC(=O)[C@H](CCCNC(=N)N)NC(=O)[C@H](Cc1ccc(O)cc1)NC(=O)[C@H](CO)NC(=O)[C@H](CC(N)=O)NC(=O)[C@@H](NC(=O)[C@H](Cc1ccc(Cl)cc1)NC(=O)[C@@H](NC(=O)[C@H](C)NC(=O)[C@H](CC(=O)O)NC(=O)[C@@H](CCCNC(=N)N)NC(=O)[C@H](Cc1ccc(O)cc1)NC(=O)Cc1ccccc1)[C@@H](C)CC)[C@@H](C)O)C(C)C)[C@@H](C)CC)C(=O)N[C@@H](CO)C(=O)N[C@H](CCCNC(=N)N)C(N)=O [Peptide 10, [PhAc^0, D-Arg^2, Phe(pCl)^6, Abu^15, Arg^16, Nle^27, D-Arg^29]hGH-RH(1–29)NH2] (PhAc-Y[dR]DAI[Phe(4-Cl)]TNSYRKVL[Abu]RLSARKLLQDI[Nle]S[dR]-NH2)
[1]; antagonist 30 nM
  Inhibition of GH release (%) 30 min: 69%
  Inhibition of GH release (%) 60 min: 46%
  Inhibition of GH release (%) 90 min: 24%
  Inhibition of GH release (%) 120 min: 22%
  Inhibition of GH release (%) 0 min: 75%
[2]
  Ki: 0.107 nM
  R.A. (relative affinity compared to Standard antagonist): 27

## CCCC[C@H](NC(=O)[C@H](CC(N)=O)NC(=O)[C@@H](NC(=O)[C@H](Cc1ccc(Cl)cc1)NC(=O)[C@@H](NC(=O)[C@H](C)NC(=O)[C@H](CC(=O)O)NC(=O)[C@@H](CCCNC(=N)N)NC(=O)[C@H](Cc1ccc(O)cc1)NC(=O)Cc1ccccc1)[C@@H](C)CC)[C@@H](C)O)C(=O)N[C@@H](Cc1ccc(O)cc1)C(=O)N[C@@H](CCCNC(=N)N)C(=O)N[C@@H](CCCCN)C(=O)N[C@H](C(=O)N[C@@H](CC(C)C)C(=O)N[C@@H](CC)C(=O)N[C@@H](CCC(N)=O)C(=O)N[C@@H](CC(C)C)C(=O)N[C@@H](CO)C(=O)N[C@@H](C)C(=O)N[C@@H](CCCNC(=N)N)C(=O)N[C@@H](CCCCN)C(=O)N[C@@H](CC(C)C)C(=O)N[C@@H](CC(C)C)C(=O)N[C@@H](CCC(N)=O)C(=O)N[C@@H](CC(=O)O)C(=O)N[C@H](C(=O)N[C@@H](CCCC)C(=O)N[C@@H](CO)C(=O)N[C@H](CCCNC(=N)N)C(N)=O)[C@@H](C)CC)C(C)C [Peptide 12, [PhAc^0, D-Arg^2, Phe(pCl)^6, Nle^9, Abu^15, Nle^27, D-Arg^29]hGH-RH(1–29)NH2] (PhAc-Y[dR]DAI[Phe(4-Cl)]TN[Nle]YRKVL[Abu]QLSARKLLQDI[Nle]S[dR]-NH2)
[1]; antagonist 30 nM
  Inhibition of GH release (%) 30 min: 75%
  Inhibition of GH release (%) 60 min: 48%
  Inhibition of GH release (%) 90 min: 52%
  Inhibition of GH release (%) 120 min: 52%
  Inhibition of GH release (%) 0 min: 68%
[2]
  Ki: 0.07 nM
  R.A. (relative affinity compared to Standard antagonist): 42

## CC[C@H](C)[C@H](NC(=O)[C@H](C)NC(=O)[C@H](CC(=O)O)NC(=O)[C@@H](CCCNC(=N)N)NC(=O)[C@H](Cc1ccc(O)cc1)NC(C)=O)C(=O)N[C@@H](Cc1ccccc1)C(=O)N[C@H](C(=O)N[C@@H](CC(N)=O)C(=O)N[C@@H](CO)C(=O)N[C@@H](Cc1ccc(O)cc1)C(=O)N[C@@H](CCCNC(=N)N)C(=O)N[C@@H](CCCCN)C(=O)N[C@H](C(=O)N[C@@H](CC(C)C)C(=O)NCC(=O)N[C@@H](CCC(N)=O)C(=O)N[C@@H](CC(C)C)C(=O)N[C@@H](CO)C(=O)N[C@@H](C)C(=O)N[C@@H](CCCNC(=N)N)C(=O)N[C@@H](CCCCN)C(=O)N[C@@H](CC(C)C)C(=O)N[C@@H](CC(C)C)C(=O)N[C@@H](CCC(N)=O)C(=O)N[C@@H](CC(=O)O)C(=O)N[C@H](C(=O)N[C@@H](CCSC)C(=O)N[C@@H](CO)C(=O)N[C@@H](CCCNC(=N)N)C(N)=O)[C@@H](C)CC)C(C)C)[C@@H](C)O [Standard antagonist, [Ac-Tyr^1,D-Arg^2]hGH-RH(1–29)NH2, reference compound] (Ac-Y[dR]DAIFTNSYRKVLGQLSARKLLQDIMSR-NH2)
[1]; antagonist 100 nM
  Inhibition of GH release (%) 30 min: 2.5%
  Inhibition of GH release (%) 60 min: 19%
  Inhibition of GH release (%) 0 min: 62.1%
[2]
  Ki: 2.94 nM
  R.A. (relative affinity compared to Standard antagonist): 1
